{
  "source": "patent US20020115688A1",
  "about": "“Screen for glutamate reuptake inhibitors, stimulators, and modulators” (priority 2000, published 2002)",
  "key": {"GLAST": {"biological_target": "T1, GLAST (Rattus norvegicus, UniProt P24942)", "T1 sequence (P24942 1-543)": "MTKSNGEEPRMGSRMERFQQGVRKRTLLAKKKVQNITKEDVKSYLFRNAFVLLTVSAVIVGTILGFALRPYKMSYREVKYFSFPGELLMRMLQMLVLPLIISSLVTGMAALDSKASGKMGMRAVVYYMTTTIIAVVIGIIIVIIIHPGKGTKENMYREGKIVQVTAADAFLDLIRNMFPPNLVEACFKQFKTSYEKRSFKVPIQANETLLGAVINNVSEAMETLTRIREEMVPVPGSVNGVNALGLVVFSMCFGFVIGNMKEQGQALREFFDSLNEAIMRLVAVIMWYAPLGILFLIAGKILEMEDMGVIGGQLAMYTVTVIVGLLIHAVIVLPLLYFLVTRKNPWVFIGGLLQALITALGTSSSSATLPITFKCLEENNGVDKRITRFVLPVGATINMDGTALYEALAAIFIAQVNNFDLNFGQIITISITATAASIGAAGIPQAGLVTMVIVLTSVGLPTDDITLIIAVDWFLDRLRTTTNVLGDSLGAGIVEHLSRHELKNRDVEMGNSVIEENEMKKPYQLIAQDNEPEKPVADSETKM", "conditions": "at concentrations below 1 mM; cited from earlier work"}, "[1]": {"biological_target": "T2, glutamate transporters (GLAST and GLT1)", "T2 construct": "Bmax; other: rat brain membrane homogenates; other: 20 nM [3H]-4MG, 15 minutes at 4° C; KD; association t½", "assay": "[3H]-4MG binding to rat brain membrane homogenates", "conditions": "for displacement of 4MG binding: at or above 100 μM, FIG. 5; for IC50: read-out: IC50 for displacement of [3H]-4MG binding", "method": "(§1) Rat brain tissue, either freshly dissected or stored frozed at −20° C. is homogenized in HEPES buffer containing Na^+(5 mM HEPES, 96 mM NaCl, 1.8 mM CaCl2, 1 mM MgCl2 (pH 7.5 at 25° C.)), and membranes are washed twice in the same buffer using standard methods for subcellular fractionation and the preparation of brain membranes. Brain tissue is weighed and homogenized in 15 ml of assay buffer using a Polytron tissue homogenizer (setting 4, 10-15 seconds). […] The homogenate is centrifuged again (as above) and the pellet re-suspended in 20 to 25 volumes of buffer. Membrane homogenates make up 20% of final assay volume. Binding assays are also performed in the above buffer.\n(§2) The range of concentrations of the receptor compound (for example, 10 nM-1 mM) is varied dependent on whether all or only a trace of the receptor compound is labeled. Following incubation of the receptor compounds (bound to the transporters) in the presence or absence of test compounds, binding is terminated by rapid filtration through Whatman GF/B filter discs and washing 3 times with buffer using a Brandel cell harvester. Binding is determined by any technique suitable for the label used. For isotope labels, scintillation spectrometry is preferred.\n(§3) Forebrain tissue from female Sprague Dawley rats was homogenised in HEPES buffer containing Na^+, and membranes were washed twice in the same buffer. Binding experiments were also performed in this buffer. […] Binding was determined by scintillation spectrometry. A full range of association, dissociation, saturation and inhibition studies was performed over varying incubation times (up to 60 min). Data were analyzed using computer-assisted curve fitting. Values are expressed as mean of at least triplicate determinations and multiple experiments.\n(§4) A full range of association, dissociation, saturation and inhibition studies was performed over varying incubation times (up to 60 min). Data were analyzed using computer-assisted curve fitting. Values cited are expressed as mean of at least triplicate determinations and multiple experiments."}, "[2]": {"test_system": "glutamate transporters (GLAST and GLT1)", "assay": "[3H]-4MG binding to rat brain membrane homogenates", "conditions": "FIG. 5", "method": "as §1, §2, §3, §4"}, "[3]": {"assay": "Hydrolysis of prodrug to the acid form", "type": "in vitro ADME", "conditions": "prodrug ester cleavage", "text": "The ester, carbonate, and amine bond in any prodrug forms of compounds identified by the disclosed method can be readily cleaved in vivo. Therefore, prodrug compositions can be hydrolyzed to the corresponding acids form in plasma."}, "[4]": {"conditions": "20 nM [3H]-4MG, 15 minutes at 4° C., FIG. 3, FIG. 4"}},
  "note": "Where two headings read alike, the source gives them in different places.",
  "data": [
    {"smiles": "CC(CC(=O)O)C(N)C(=O)O", "note": "(racemic) [3MG, (±)-threo-3-methylglutamate]", "values": [
      {"measurement": "binding to GLAST", "setting": "GLAST", "value": "do not bind"}
    ]},
    {"smiles": "C[C@H](C[C@H](N)C(=O)O)C(=O)O", "note": "[4MG, (2S,4R)-4-methyl glutamic acid]", "values": [
      {"measurement": "Kd", "setting": "[1]; rat brain membrane homogenates, FIG. 1", "value": 5.4, "unit": "µM"}
    ]},
    {"smiles": "Cc1onc(O)c1CC(N)C(=O)O", "note": "(stereo not drawn) [AMPA, α-amino-3-hydroxy-5-methyl-4-isoxazolepropionate]", "values": [
      {"measurement": "displacement of 4MG binding", "setting": "[1]", "value": "failed to significantly displace"}
    ]},
    {"smiles": "CC(C)(C)c1o[nH]c(=O)c1CC(N)C(=O)O", "note": "(stereo not shown) [ATPA]", "values": [
      {"measurement": "effect on 4MG and/or D-aspartate binding to GluTs", "setting": "[2]", "value": "failed to affect"}
    ]},
    {"smiles": "N[C@H](C(=O)O)[C@H]1C[C@H]1C(=O)O", "note": "[CCG-III, (2S,3S,4R)-2-(carboxycyclopropyl)glycine]", "values": [
      {"measurement": "IC50", "setting": "[1]; [4]", "value": 1.2, "unit": "µM"}
    ]},
    {"smiles": "CC(C)[C@H]1CN[C@H](C(=O)O)[C@H]1CC(=O)O", "note": "[DHK, L-Dihydrokainate]", "values": [
      {"measurement": "binding to GLAST", "setting": "GLAST", "value": "do not bind"}
    ]},
    {"smiles": "N[C@@H](Cn1cc(F)c(=O)[nH]c1=O)C(=O)O", "note": "[FW, fluorowillardiine]", "values": [
      {"measurement": "displacement of 4MG binding", "setting": "[1]", "value": "failed to significantly displace"}
    ]},
    {"smiles": "NCCCC(=O)O", "note": "[GABA, γ-aminobutyric acid]", "values": [
      {"measurement": "effect on 4MG and/or D-aspartate binding to GluTs", "setting": "[2]", "value": "failed to affect"}
    ]},
    {"smiles": "NCC(=O)O", "note": "[GLY, glycine]", "values": [
      {"measurement": "effect on 4MG and/or D-aspartate binding to GluTs", "setting": "[2]", "value": "failed to affect"}
    ]},
    {"smiles": "N[C@@H](Cn1cc(I)c(=O)[nH]c1=O)C(=O)O", "note": "[IW, iodowillardine]", "values": [
      {"measurement": "effect on 4MG and/or D-aspartate binding to GluTs", "setting": "[2]", "value": "failed to affect"}
    ]},
    {"smiles": "C=C(C)[C@H]1CN[C@H](C(=O)O)[C@H]1CC(=O)O", "note": "[KA, kainate]", "values": [
      {"measurement": "binding to GLAST", "setting": "GLAST", "value": "do not bind"}
    ]},
    {"smiles": "N[C@@H](CC(=O)O)C(=O)O", "note": "[L-aspartate]", "values": [
      {"measurement": "IC50", "setting": "[1]; [4]", "value": 7.5, "unit": "µM"}
    ]},
    {"smiles": "CN[C@H](CC(=O)O)C(=O)O", "note": "[NMDA, N-methyl-D-aspartate]", "values": [
      {"measurement": "displacement of 4MG binding", "setting": "[1]", "value": "failed to significantly displace"}
    ]},
    {"smiles": "O=C(O)[C@H]1CN[C@H](C(=O)O)C1", "note": "[PDC, L-trans-pyrrolidine-2,4-dicarboxylate]", "values": [
      {"measurement": "IC50", "setting": "[1]; [4]", "value": 2.9, "unit": "µM"}
    ]},
    {"smiles": "N[C@@H](COS(=O)(=O)O)C(=O)O", "note": "[SOS, L-serine-O-sulphate]", "values": [
      {"measurement": "IC50", "setting": "[1]", "value": 40, "unit": "µM"}
    ]},
    {"smiles": "COC(=O)[C@H](C)C[C@H](N)C(=O)OC", "note": "[compound 2, (2S,4R)-4-methyl glutamic acid dimethyl ester]", "values": [
      {"measurement": "hydrolysis to (2S,4R)-4-methyl glutamic acid (1)", "setting": "[3]", "value": "readily hydrolyzed"}
    ]}
  ]
}
